Source: US6924353B2, “Inhibitors for RNA viruses” (priority 2003, dated 2005)
“Also recorded” adds a separate entry of the source. Where no end group is shown, it is not given here.

Assays:
RSV = experiment: Infectivity inhibition by natural and synthetic RIP, RSV in HEp2; format: cell-based, respiratory syncytial virus; settings: 10 μg/ml; for Log TCID/50: six days
Procedure: (§1) Infectivity Inhibition of RNA Viruses by Synthetic RIP: For comparison, the natural and the synthetic RIPs were tested in cell cultures infected with different RNA viruses. The cell line MA 104 was used for infecting rotavirus SA 11 strain. HEp2 cells were used for infecting RSV and PIV3 viruses. The cells were infected in serial dilutions from 10^−2 to 10^−8; three wells were used for each dilution. After absorption of the virus, the cultures were divided into three groups. Group one received medium containing PBS as a positive control, group two received medium containing 10 μg/ml of natural RIP, and for the remaining group the medium was incorporated with 10 μg/ml synthetic RIP. The tests were read after six days and TCID/50 were calculated from CPE.
The approved drug ribovirin was tested for RSV virus in HEp2 cells at 10 μg/ml concentration. […] Synthetic RIP should be more inhibitory by increasing the concentration.

rotavirus strain SA 11 = experiment: Biological activity of trypsin fragments and synthetic versions, MA104 cells infected with rotavirus; format: cell-based; settings: tested at 20, 10, 5, 2.5, and 1.0 μg/ml
Procedure: Biological Activity of Fragments: Initially, the inhibitory activity of the fragments was tested on African green monkey kidney cells MA104 infected with rotavirus strain SA 11. Dulbecco Modified Eagle's Medium (DMEM) containing 10% newborn calf serum (NBCS), L-glutamine and the antibiotics penicillin and streptomycin was used to grow MA 104 and HEp2 cells into monolayers after being monodispersed with a mixture of trypsin/EDTA. The same medium without serum, containing 1 μg/ml trypsin, designated as “special medium,” was used after infecting MA 104 cells with SA 11 virus including the controls. Initially, each fraction was tested on monolayers of MA 104 cells grown in 48 well plates and infected at 10^−2 dilution of SA 11 virus. Before infecting, MA 104 cells were washed with serum free medium. The virus was allowed to absorb for 1 hour at 37° C. in a humid CO2 incubator. After absorption, 0.9 ml of medium was added to each well. Each fraction was tested at the concentration of 20, 10, 5, 2.5, and 1.0 μg/ml. Cells infected with virus received PBS to serve as positive controls, for virus CPE. The tests were read after six days.
The sequencing and synthesis was contracted out to the Protein Core Laboratory of Baylor College of Medicine, Houston, Tex.

PIV3 = experiment: Infectivity inhibition by natural and synthetic RIP, PIV3 in HEp2; format: cell-based, human parainfluenza type 3; settings: 10 μg/ml
Procedure: as §1

rotavirus SA 11 strain = experiment: Infectivity inhibition by natural and synthetic RIP, rotavirus in MA 104; format: cell-based; settings: 10 μg/ml; for Log TCID/50: six days
Procedure: as §1

For `NC(=O)c1ncn([C@@H]2O[C@H](CO)[C@@H](O)[C@H]2O)n1` [ribovirin, reference compound], the “Log TCID/50” value (RSV) was 5.4 Log TCID/50.

With “A K A G S D N T K G G V Y P M (ALAGSDNTKGGVYPM; SYNTHESIZED. CORRESPONDS TO POSITIONS 1-15 OF SEQ. ID. NO. 2) [SEQ. ID. NO.: 3, synthetic version, 15 amino acids]” the “antiviral activity (inhibition of rotavirus) of fragment and synthetic versions” value (rotavirus strain SA 11) was “effective; also recorded: good results”.

In the case of “A K A G S (AKAGS; SYNTHESIZED. CORRESPONDS TO POSITIONS 1-5 OF SEQ. ID. NO. 2) [SEQ. ID. NO.: 5, synthetic version, five amino acids]”, the “antiviral activity (inhibition of rotavirus) of fragment and synthetic versions” value (rotavirus strain SA 11) is reported as “good results”.

AKAGSDNTKGGVYPMFGM [SEQ ID. NO.: 2] was tested, and the “antiviral activity (inhibition of rotavirus) of fragment and synthetic versions” value (rotavirus strain SA 11) was “most active fragment” and the “antiviral activity (inhibition of rotavirus) of fragment and synthetic versions” value (rotavirus strain SA 11; listed as SEQ. ID. NO.: 2) was “effective; also recorded: good results”.

In the case of AKAGSDNTKG [synthetic RIP], the “Log Inhibition of infectivity” value (PIV3) is reported as 2.0 Log, the “Log TCID/50” value (PIV3; six days) is reported as 5.8 Log TCID/50 and the “Log Inhibition of infectivity” value (rotavirus SA 11 strain) is reported as 1.9 Log. For the same compound, the “Log TCID/50” value (rotavirus SA 11 strain) was 4.5 Log TCID/50, the “Log TCID/50” value (rotavirus SA 11 strain; listed as Syn RIP) was 4.3 Log TCID/50 and the “Log Inhibition of infectivity” value (RSV) was 1.7 Log. The “Log TCID/50” value (RSV) was 5.8 Log TCID/50, the “Log TCID/50” value (RSV; listed as Syn RIP) was 4.5 Log TCID/50 and the “antiviral activity (inhibition of rotavirus) of fragment and synthetic versions” value (rotavirus strain SA 11; listed as SEQ. ID. NO.: 4) was “most active domain; also recorded: good results”. For the same compound, the “antiviral activity (inhibition of rotavirus) of fragment and synthetic versions” value (rotavirus strain SA 11; listed as SEQ. ID. No.: 4) was “the most inhibition”.
